Data taken from US20240368159A1, “HPK1 DEGRADERS, COMPOSITIONS COMPRISING THE HPK1 DEGRADER, AND METHODS OF USING THE SAME” (BIOFRONT LTD, priority 2021, published 2024).

Columns and labels:
HPK1 protein [1] = biological target: T1, HPK1 protein (Homo sapiens, UniProt Q92918); experiment: HPK1 protein degradation in human PBMC (western blot); assay type: cell-based; details: 18 h incubation
T1 construct: Frozen human PBMC were purchased from Shanghai OribioTech; host or cells: human PBMC
Procedure: HPK1 protein degradation in human PBMC: Frozen human PBMC were purchased from Shanghai OribioTech and recovered with culture medium (RMPI1640) prior to use. The cells were then incubated with a variety of concentrations of compound. After incubation for 18 h, the cells were collected and lysed. The protein concentration was determined by BCA protein assay kit from Thermo (23227). The HPK1 protein level was determined by western blots, using anti-human HPK1 polyclonal antibody from CST (4472S). Proteins were loaded into each well of the pre-casting gels and subjected to electrophoretic separation by SDS-PAGE. The protein resolved by SDS-PAGE were transferred to PVDF, blocked by 5% skim milk, and probed with anti-human HPK1 antibody or β-actin antibody from CST (3700S), using standard western blotting procedure.
T1 sequence (Q92918 whole entry): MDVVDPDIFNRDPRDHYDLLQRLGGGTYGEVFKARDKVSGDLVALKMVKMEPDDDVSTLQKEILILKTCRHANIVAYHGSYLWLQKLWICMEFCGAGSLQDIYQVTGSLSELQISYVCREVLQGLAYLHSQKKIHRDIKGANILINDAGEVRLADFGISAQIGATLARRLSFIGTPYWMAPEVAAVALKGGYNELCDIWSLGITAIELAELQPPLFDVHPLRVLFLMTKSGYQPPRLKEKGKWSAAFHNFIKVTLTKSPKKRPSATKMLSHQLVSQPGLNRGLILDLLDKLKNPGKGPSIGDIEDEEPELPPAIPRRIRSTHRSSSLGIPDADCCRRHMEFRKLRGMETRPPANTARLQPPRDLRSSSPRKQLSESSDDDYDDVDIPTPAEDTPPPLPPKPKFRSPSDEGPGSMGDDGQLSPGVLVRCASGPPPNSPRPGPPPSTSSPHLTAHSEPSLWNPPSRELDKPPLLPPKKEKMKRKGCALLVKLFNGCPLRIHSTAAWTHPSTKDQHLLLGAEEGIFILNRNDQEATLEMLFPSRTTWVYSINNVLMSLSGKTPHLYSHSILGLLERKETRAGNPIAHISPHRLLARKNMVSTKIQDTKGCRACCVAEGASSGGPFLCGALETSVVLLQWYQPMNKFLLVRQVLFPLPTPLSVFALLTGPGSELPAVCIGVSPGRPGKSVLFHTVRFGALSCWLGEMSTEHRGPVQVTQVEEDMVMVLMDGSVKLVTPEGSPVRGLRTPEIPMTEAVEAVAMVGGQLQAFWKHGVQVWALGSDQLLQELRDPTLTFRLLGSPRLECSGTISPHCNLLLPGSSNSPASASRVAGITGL

HPK1 protein [2] = biological target: T2, HPK1 protein (Homo sapiens, UniProt Q92918); experiment: HPK1 enzyme inhibition assay (ADP-Glo); assay type: biochemical; details: MBP substrate, ATP, ADP-Glo readout
T2 construct: purchased Signal Chem M23-11G-10
T2 sequence (Q92918 1-346 limits assumed): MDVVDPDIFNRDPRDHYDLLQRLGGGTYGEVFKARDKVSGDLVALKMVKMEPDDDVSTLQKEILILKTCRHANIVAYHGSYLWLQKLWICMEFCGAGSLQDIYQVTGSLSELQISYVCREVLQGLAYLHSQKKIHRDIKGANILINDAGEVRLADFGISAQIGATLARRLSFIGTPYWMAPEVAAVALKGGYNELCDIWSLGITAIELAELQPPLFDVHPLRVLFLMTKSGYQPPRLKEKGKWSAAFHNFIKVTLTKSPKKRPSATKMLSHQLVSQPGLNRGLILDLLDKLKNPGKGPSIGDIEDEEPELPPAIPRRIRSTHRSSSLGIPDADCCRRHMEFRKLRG
Method in brief: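 Recombinant human HPK1 preincubated with compound 60 min at 25 °C, then reaction with MBP (0.2 ug/ul, 2× stock) and ATP (20 μM, 2× stock) 60 min at 25 °C. ADP formed detected by ADP-Glo after ATP depletion and conversion to ATP; IC50 calculated from signal.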

HPK1 protein [3] = biological target: T3, HPK1 protein (Mus musculus, UniProt P70218); experiment: HPK1 protein degradation in mouse pan T cell (western blot); assay type: cell-based; details: 18 h incubation
T3 construct: the CD3+ T cell population was isolated from spleenocytes of mice; endogenous in cells; host or cells: primary mouse splenic CD3+ (pan) T cells
T3 sequence (P70218 1-827): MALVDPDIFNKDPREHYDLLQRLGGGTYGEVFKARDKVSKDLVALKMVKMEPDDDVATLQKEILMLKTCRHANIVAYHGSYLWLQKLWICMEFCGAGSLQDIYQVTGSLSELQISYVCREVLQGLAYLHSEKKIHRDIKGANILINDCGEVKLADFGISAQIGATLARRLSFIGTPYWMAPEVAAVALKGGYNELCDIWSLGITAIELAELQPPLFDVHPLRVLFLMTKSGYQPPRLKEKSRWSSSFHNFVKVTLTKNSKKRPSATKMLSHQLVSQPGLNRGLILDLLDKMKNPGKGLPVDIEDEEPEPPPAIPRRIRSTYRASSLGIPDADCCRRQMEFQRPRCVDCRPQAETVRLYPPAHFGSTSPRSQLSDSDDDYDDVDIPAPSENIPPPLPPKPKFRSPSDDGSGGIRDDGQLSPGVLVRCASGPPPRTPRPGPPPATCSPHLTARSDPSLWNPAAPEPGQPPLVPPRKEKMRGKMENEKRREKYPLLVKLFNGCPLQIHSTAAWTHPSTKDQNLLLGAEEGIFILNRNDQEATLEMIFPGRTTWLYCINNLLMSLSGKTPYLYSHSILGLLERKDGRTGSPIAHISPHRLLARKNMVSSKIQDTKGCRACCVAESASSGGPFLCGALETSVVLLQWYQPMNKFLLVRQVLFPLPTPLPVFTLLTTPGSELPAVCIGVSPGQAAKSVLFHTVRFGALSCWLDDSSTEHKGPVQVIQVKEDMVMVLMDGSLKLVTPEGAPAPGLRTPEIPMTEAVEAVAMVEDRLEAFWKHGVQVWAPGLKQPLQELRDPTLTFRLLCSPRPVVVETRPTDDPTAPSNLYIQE
Method in brief: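 CD3+ pan T cells were isolated from mouse splenocytes and incubated 18 h with a range of compound concentrations. Lysates were normalised by BCA and run on SDS-PAGE. HPK1 was detected by western blot with an anti-human HPK1 polyclonal antibody, with β-actin as loading control.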

HPK1 p-SLP-76 = HPK1 p-SLP-76 inhibition assay in human PBMC (HTRF); assay type: cell-based; details: 6 h compound, anti-CD3 stimulation 20 min
Method in brief: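 Human PBMC starved overnight in 0.5% FBS, treated with compound 6 h at 37° C, then stimulated with anti-CD3 (10 ug/mL final) for 20 min. Lysates analysed for phospho-SLP76 by HTRF after overnight detection-antibody incubation at 25° C.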

[4] = system: IL-2 production in primary mouse CD3+ T cells; experiment: Cytokine measurement: IL-2 production in mouse CD3+ T cells (ELISA); assay type: cell-based; details: T-cell, plate bound anti-CD3, 40 hrs; for fold induction at 1 µM: 1 uM compound, read-out: IL-2 production Fold change (1 uM); for fold induction at 3 µM: 3 uM compound, read-out: IL-2 production Fold change (3 uM)
Procedure: Anti-CD3 Ab was used to provide signal 1 to stimulate mouse CD3+ T cells. Effect of compound stimulation on T cells was measure by IL2 ELISA. Briefly, anti-CD3 Ab was coated onto plates overnight. Isolated T cells from mouse splenocytes were incubated with plate bound CD3 in the presence and absence of compound for 40 hrs. After incubation, the supernatant was collected and IL2 level in the supernatant was determined by mouse IL2 ELISA kit.

| Structure (SMILES) | Dmax (HPK1 protein [1]) | IC50 (HPK1 protein [2]) | Dmax (HPK1 protein [3]) | IC50 (HPK1 p-SLP-76) | fold induction at 1 µM [4] | fold induction at 3 µM [4] |
| --- | --- | --- | --- | --- | --- | --- |
| CCc1c[nH]c2ncc(-c3cccc(N4CCN(CCCOC5CCN(c6ccc7c(c6)C(=O)N(C6CCC(=O)NC6=O)C7=O)CC5)CC4=O)c3)c(Cl)c12 (stereo not shown) [Example 35, 5-(4-(3-(4-(3-(4-chloro-3-ethyl-1H-pyrrolo[2,3-b]pyridin-5-yl)phenyl)-3-oxopiperazin-1-yl)propoxy)piperidin-1-yl)-2-(2,6-dioxopiperidin-3-yl)isoindoline-1,3-dione] | 90% | 0.01 to 0.1 µM | 95% | 0.3 to 3 µM | – | – |
| O=C1CCC(N2C(=O)c3ccc(N4CCC(OCC(=O)N5CCN(c6cccc(-c7cnc8[nH]cc(CC(F)F)c8c7Cl)c6)C(=O)C5)CC4)cc3C2=O)C(=O)N1 (stereo not shown) [Example 36] | 94% | 0.01 to 0.1 µM | 95% | ≤ 0.3 µM | 1.8 | 3.8 |
| O=C1CCC(N2C(=O)c3cc(F)c(N4CCN(CCCN5CCN(c6cccc(-c7cnc8[nH]cc(C9CC9)c8c7Cl)c6)C(=O)C5)CC4)cc3C2=O)C(=O)N1 (stereo not shown) [Example 43] | 94% | 0.1 to 1 µM | 95% | 0.3 to 3 µM | – | – |
| O=C1CCC(N2Cc3cc(C4CCN(CCCN5CCN(c6cccc(-c7cnc8[nH]cc(C9CC9)c8c7Cl)c6)C(=O)C5)CC4)ccc3C2=O)C(=O)N1 (stereo not shown) [Example 54, 3-(5-(1-(3-(4-(3-(4-chloro-3-cyclopropyl-1H-pyrrolo[2,3-b]pyridin-5-yl)phenyl)-3-oxopiperazin-1-yl)propyl)piperidin-4-yl)-1-oxoisoindolin-2-yl)piperidine-2,6-dione] | 83% | ≤ 0.01 µM | 95% | ≤ 0.3 µM | – | – |
| O=C1CCC(N2Cc3cc(C4=CCN(CCCN5CCN(c6cccc(-c7cnc8[nH]cc(C9CC9)c8c7Cl)c6)C(=O)C5)CC4)ccc3C2=O)C(=O)N1 (stereo not shown) [Example 56, 3-(5-(1-(3-(4-(3-(4-chloro-3-cyclopropyl-1H-pyrrolo[2,3-b]pyridin-5-yl)phenyl)-3-oxopiperazin-1-yl)propyl)-1,2,3,6-tetrahydropyridin-4-yl)-1-oxoisoindolin-2-yl)piperidine-2,6-dione] | 98% | ≤ 0.01 µM | 95% | 0.3 to 3 µM | – | – |
| O=C1CCC(N2Cc3cc(N4CCN(CCCN5CCN(c6cccc(-c7cnc8[nH]cc(C9CC9)c8c7Cl)c6)C(=O)C5)CC4)ccc3C2=O)C(=O)N1 (stereo not shown) [Example 63, 3-(5-(4-(3-(4-(3-(4-chloro-3-cyclopropyl-1H-pyrrolo[2,3-b]pyridin-5-yl)phenyl)-3-oxopiperazin-1-yl)propyl)piperazin-1-yl)-1-oxoisoindolin-2-yl)piperidine-2,6-dione] | 90% | ≤ 0.01 µM | – | ≤ 0.3 µM | 2.1 | 2 |
| O=C1CCC(Nc2ccc(C3CCN(CCCN4CCN(c5cccc(-c6cnc7[nH]cc(C8CC8)c7c6Cl)c5)C(=O)C4)CC3)cc2)C(=O)N1 (stereo not shown) [Example 78, 3-((4-(1-(3-(4-(3-(4-chloro-3-cyclopropyl-1H-pyrrolo[2,3-b]pyridin-5-yl)phenyl)-3-oxopiperazin-1-yl)propyl)piperidin-4-yl)phenyl)amino)piperidine-2,6-dione] | 90% | ≤ 0.01 µM | 88% | 0.3 to 3 µM | – | – |
| O=C1CCC(N2C(=O)c3ccc(OCCC4CN(C(=O)N5CCN(c6cccc(-c7cnc8[nH]cc(C9CC9)c8c7Cl)c6)C(=O)C5)C4)cc3C2=O)C(=O)N1 (stereo not shown) [Example 95, 5-(2-(1-(4-(3-(4-chloro-3-cyclopropyl-1H-pyrrolo[2,3-b]pyridin-5-yl)phenyl)-3-oxopiperazine-1-carbonyl)azetidin-3-yl)ethoxy)-2-(2,6-dioxopiperidin-3-yl)isoindoline-1,3-dione] | – | 0.01 to 0.1 µM | – | – | 1.8 | 2.7 |
| O=C1CCC(c2ccc(C3CCN(CCCS(=O)(=O)N4CCN(c5cccc(-c6cnc7[nH]cc(C8CC8)c7c6Cl)c5)C(=O)C4)CC3)cc2)C(=O)N1 (stereo not shown) [Example 102, 3-(4-(1-(3-((4-(3-(4-chloro-3-cyclopropyl-1H-pyrrolo[2,3-b]pyridin-5-yl)phenyl)-3-oxopiperazin-1-yl)sulfonyl)propyl)piperidin-4-yl)phenyl)piperidine-2,6-dione] | – | ≤ 0.01 µM | – | 0.3 to 3 µM | 2.9 | 2.6 |

The next lines start with results.

| Dmax (HPK1 protein [1]) | IC50 (HPK1 protein [2]) | Dmax (HPK1 protein [3]) | IC50 (HPK1 p-SLP-76) | Structure (SMILES) | fold induction at 1 µM [4] | fold induction at 3 µM [4] |
| --- | --- | --- | --- | --- | --- | --- |
| – | ≤ 0.01 µM | 97% | ≤ 0.3 µM | O=C1CCC(Nc2ccc(N3CCN(CCCN4CCN(c5cccc(-c6cnc7[nH]cc(C8CC8)c7c6Cl)c5)C(=O)C4)CC3)c(F)c2)C(=O)N1 (stereo not shown) [Example 79, 3-((4-(4-(3-(4-(3-(4-chloro-3-cyclopropyl-1H-pyrrolo[2,3-b]pyridin-5-yl)phenyl)-3-oxopiperazin-1-yl)propyl)piperazin-1-yl)-3-fluorophenyl)amino) piperidine-2,6-dione] | 2.6 | < 0.5 |
| – | 0.01 to 0.1 µM | – | > 10 µM | O=C1CCC(N2C(=O)c3ccc(N4CCC(COC(=O)N5CCN(c6cccc(-c7cnc8[nH]cc(C9CC9)c8c7Cl)c6)C(=O)C5)CC4)cc3C2=O)C(=O)N1 (stereo not shown) [Example 88] | 2.3 | 2.4 |
| 99% | 0.01 to 0.1 µM | 90% | ≤ 0.3 µM | CCc1c[nH]c2ncc(-c3cccc(N4CCN(S(=O)(=O)CCCN5CCN(c6ccc7c(c6)C(=O)N(C6CCC(=O)NC6=O)C7=O)CC5)CC4=O)c3)c(Cl)c12 (stereo not shown) [Example 99, 5-(4-(3-((4-(3-(4-chloro-3-ethyl-1H-pyrrolo[2,3-b]pyridin-5-yl)phenyl)-3-oxopiperazin-1-yl)sulfonyl)propyl)piperazin-1-yl)-2-(2,6-dioxopiperidin-3-yl)isoindoline-1,3-dione] | – | – |
| – | ≤ 0.01 µM | – | ≤ 0.3 µM | O=C1CCC(N2Cc3cc(N4CCN(CCCS(=O)(=O)N5CCN(c6cccc(-c7cnc8[nH]cc(C9CC9)c8c7Cl)c6)C(=O)C5)CC4)ccc3C2=O)C(=O)N1 (stereo not shown) [Example 103, 3-(5-(4-(3-((4-(3-(4-chloro-3-cyclopropyl-1H-pyrrolo[2,3-b]pyridin-5-yl)phenyl)-3-oxopiperazin-1-yl)sulfonyl)propyl)piperazin-1-yl)-1-oxoisoindolin-2-yl)piperidine-2,6-dione] | 2.1 | 2.8 |
